From patent US4517179A, “Rapid dissolving, uniform drug compositions and their preparation” (priority 1984, dated 1985)
≈ marks a conversion by molar mass, not a printed value. Values belong to the compound of their own block, whether it stands above or below them.

Columns and labels:
[1] = Particle size distribution by screen analysis; assay type: physicochemical; conditions: for particle size d16%: 16 weight percent; for particle size d50%: 50 weight percent; for particle size d84%: 84 weight percent
Procedure: where d is the particle diameter in μm at the indicated percentage by weight and σg is the geometric standard deviation.
The particle size distributions of drugs and excipients were determined by a screen analysis technique. A 5 gm sample of each test material was placed on the top screen of a set of six US standard screens of an Allen Bradley Sonic Sifter. The screens were pulsed for 15 minutes. The following screens were used: 80 mesh (180 μm), 100 mesh (150 μm), 140 mesh (106 μm), 200 mesh (75 μm), 270 mesh (53 μm) and 400 mesh (38 μm). The weights of the fractions retained on the screens were obtained. Particle sizes (d) at specific weight percents (16, 50, and 84) were obtained from a log probability plot of the data as described by Edmundson (Advances in Pharmaceutical Sciences, Bean, H.S. et al. Editors, Academic, London, England p. 95, 1967). These particle sizes are described as d16, d50, and d84.
The slopes of the lines from the plots were calculated to give the geometric standard deviation (σg).

Water solubility = assay type: physicochemical; conditions: for solubility: water
[2] = result from metolazone usage; cited from earlier work
[3] = 0.01N hydrochloric acid; cited from earlier work
[4] = listed as fine-milled metolazone
[5] = listed as monocrystalline metolazone

particle size d16% [1, 4]: 155 μm | particle size d16% ([1]; listed as milled metolazone): 94 μm | particle size d16% [1, 5]: 460 μm | particle size d50% [1, 4]: 86 μm | particle size d50% ([1]; listed as milled metolazone): 56 μm | particle size d50% [1, 5]: 190 μm | particle size d84% [1, 4]: 48 μm | particle size d84% ([1]; listed as milled metolazone): 34 μm | particle size d84% [1, 5]: 83 μm | water solubility (Water solubility; 25° C.): approximately 60.3 mcg/ml | solubility (Water solubility; 25° C.): ~60 µg/mL (≈ 164 µM) | solubility (Water solubility; 36° C.): ~100 µg/mL (≈ 273 µM)
SMILES: Cc1ccccc1N1C(=O)c2cc(S(N)(=O)=O)c(Cl)cc2NC1C (centres unmarked) [metolazone, 2-methyl-3-o-tolyl-6-sulfamyl-7-chloro-1,2,3,4-tetrahydro-4-quinazolinone]
side effects [2]: hypokalemia

SMILES: Cc1ccccc1N1C(=O)c2cc(S(N)(=O)=O)c(Cl)cc2NC1C (centres unmarked) [amorphous and metastable metolazone]
dissolution rate relative to the stable modification (mp. 267°-270° C.) [3]: about 8 times faster

particle size d16% [1]: 76 μm | particle size d50% [1]: 41 μm | particle size d84% [1]: 17 μm
SMILES: Nc1nc(N)c2nc(-c3ccccc3)c(N)nc2n1 [triamterene]
